In patent US9975893B2, “Pyrazolo[3,4-c]pyridine derivatives” (CSPC ZHONGQI PHARMACEUTICAL TECHNOLOGY (SHIJIAZHUANG) CO., …, priority 2014, dated 2018):

Tests used:
Factor Xa = molecular target: T1, Factor Xa (Homo sapiens, UniProt P00742); experiment: Anti-Factor Xa activity assay (chromogenic substrate CS-11(22)); format: biochemical; conditions: ratio of compound IC50 to apixaban IC50; Factor Xa 0.1 U/ml, absorbance at 405 nm, 37° C.
T1 construct: purchased MERK
Method: I. Anti-Factor Xa Activity Assay
Substrate: CS-1122 (Hyphen)
Buffer: 50 mM TrisHCl, 150 mM NaCl, PH8.3
100 μL of buffer, 50 μL of different concentrations of compounds (diluted with buffer) and 50 μl of 0.1 U/ml Factor Xa enzyme (diluted with buffer) were added to a 96-well plate. After 15 min of exposure, 50 μL of chromogenic substrate 2.5 mg/ml CS-11 (22) was added. The substrate hydrolysis was monitored by measuring absorbance at 405 nm at 37° C. for up to 30 min (interval: 30 seconds) using a microplate spectrophotometer. IC50 was calculated by bliss.

Male SD rats [1] = experiment: Arteriovenous shunt model in rats; format: in vivo, rat; set-up: concentration or dose not given beside the values; conditions: rats given orally 2-4 hours before shunt opened; shunt 15 minutes; thrombus weight, treated vs. mean vehicle
Description: III. Arteriovenous Shunt Model in Rats
Two 10 cm-long polyethylene tubings (1.50 and 2.88 mm of inner and outer diameter, respectively) linked to a central part (8 cm-long, 2.11 and 3.77 mm of inner and outer diameter, respectively) containing a 6 cm silk thread and filled with heparin (3.125 U/ml) were placed between the right carotid artery and the left jugular vein in rats.
Male SD rats were anesthetized by intraperitoneal injection of 10% chloral hydrate after oral dose, inverted fixation, then the right catotid artery and left vena jugularis externa were isolated, the proximal and distal sutures of catotid artery were tied. The syringe needle were cannulated into the catotid artery and fasted, the other of the tube was cannulated into the right vena jugularis externa. Rats were given orally 2-4 hours before the shunt was opened. Blood flowed from the right carotid artery into the polyethylene tubing and then return to left vena jugularis externa. The shunt was then disconnected 15 minutes later and the silk thread covered with thrombus was immediately withdrawn and weighed. The wet weight of the thrombus was determined. Then the silk thread was dried at 60° C. for 4 h to get the dry weight of the thrombus. The anti-thrombotic effects of these agents were expressed as percentage inhibition of thrombus formation based on the treated vs. the corresponding mean vehicle.

Male SD rats [2] = experiment: Rat tail bleeding model; format: in vivo; conditions: rat tail transected 0.5 to 4 hours after administration; prolongation = ratio of treated vs. mean vehicle value; relative to apixaban
Method: II Rat Tail Bleeding Model
Male SD rats were allocated randomly and administrated. After the administration, the rats were anesthetized by intraperitoneal injection of 10% chloral hydrate. At the time point of 0.5 to 4 hours (Tmax in PK) after the administration, the tails of anesthetized rats were transected 3 mm from the tip and vertically immersed in saline at 37° C. The time point when the continuous blood flow ceased for >30 s was measured. The prolongation of bleeding time was expressed as a ratio of treated vs. the mean vehicle value. Effects of compounds were determined as described below.

T1 sequence (P00742 235-488 limits assumed): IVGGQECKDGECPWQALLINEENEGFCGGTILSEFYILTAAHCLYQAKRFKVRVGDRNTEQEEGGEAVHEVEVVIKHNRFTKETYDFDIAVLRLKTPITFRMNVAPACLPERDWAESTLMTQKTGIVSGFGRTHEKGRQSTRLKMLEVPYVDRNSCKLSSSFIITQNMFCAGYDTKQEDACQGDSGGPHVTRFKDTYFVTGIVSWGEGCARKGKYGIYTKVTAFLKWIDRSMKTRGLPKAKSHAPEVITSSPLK
T1 sequence (P00742 41-179 partner limits assumed): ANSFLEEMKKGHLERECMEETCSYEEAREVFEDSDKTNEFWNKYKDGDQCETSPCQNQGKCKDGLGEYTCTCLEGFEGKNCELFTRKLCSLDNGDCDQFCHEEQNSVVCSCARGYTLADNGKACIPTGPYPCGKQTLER

Row | Structure (SMILES) | IC50(Compound)/IC50(apixaban) (Factor Xa) | Inhibition of thrombus formation (%) (Male SD rats [1]) | The Prolongation of bleeding time (compound)/The Prolongation of bleeding time(apixaban) (Male SD rats [2])
1 | COc1ccc(-n2nc(C(N)=O)c3c2C(=O)N(c2ccc(N4CCOCC4=O)c(C)c2)CC3)cc1 [A 17, 1-(4-methoxyphenyl)-6-(3-methyl-4-(3-oxomorpholino)phenyl)-7-oxo-4,5,6,7-tetrahydro-1H-pyrazolo[3,4-c]pyridine-3-carboxamide] | <1 | – | –
2 | CCOc1ccc(-n2nc(C(N)=O)c3c2C(=O)N(c2ccc(N4CCCC4=O)c(C)c2)CC3)cc1F [A 36, 1-(3-fluoro-4-ethoxyphenyl)-6-(3-methyl-4-(2-oxopyrrolidin-1-yl)phenyl)-7-oxo-4,5,6,7-tetrahydro-1H-pyrazolo[3,4-c]pyridine-3-carboxamide] | <1 | 71.6 | <1
3 | COc1ccc(-n2nc(C(N)=O)c3c2C(=O)N(c2ccc(-n4ccccc4=O)c(C)c2)CC3)cc1F [A 50, 1-(3-fluoro-4-methoxyphenyl)-6-(3-methyl-4-(2-oxopyridin-1(2H)-yl)phenyl)-7-oxo-4,5,6,7-tetrahydro-1H-pyrazolo[3,4-c]pyridine-3-carboxamide] | <1 | – | –
4 | CCOc1ccc(-n2nc(C(N)=O)c3c2C(=O)N(c2ccc(-n4cccc(C)c4=O)cc2)CC3)cc1F [A 27, 1-(3-fluoro-4-ethoxyphenyl)-6-(4-(3-methyl-2-oxopyridin-1(2H)-yl)phenyl)-7-oxo-4,5,6,7-tetrahydro-1H-pyrazolo[3,4-c]pyridine-3-carboxamide] | <2 | 68.7 | <1
5 | COc1ccc(-n2nc(C(N)=O)c3c2C(=O)N(c2ccc(-n4ccccc4=O)c(C)c2)CC3)cc1 [A 19, 1-(4-methoxyphenyl)-6-(3-methyl-4-(2-oxopyridin-1(2H)-yl)phenyl)-7-oxo-4,5,6,7-tetrahydro-1H-pyrazolo[3,4-c]pyridine-3-carboxamide] | <1 | – | –
6 | CCOc1ccc(-n2nc(C(N)=O)c3c2C(=O)N(c2ccc(N4CCCCC4=O)c(C)c2)CC3)cc1 [A 31, 1-(4-ethoxyphenyl)-6-(3-methyl-4-(2-oxopiperidin-1-yl)phenyl)-7-oxo-4,5,6,7-tetrahydro-1H-pyrazolo[3,4-c]pyridine-3-carboxamide] | <1 | 71.5 | <1
7 | CCOc1ccc(-n2nc(C(N)=O)c3c2C(=O)N(c2ccc(-n4cccc(C)c4=O)cc2)CC3)cc1Cl [A 30, 1-(3-chloro-4-ethoxyphenyl)-6-(4-(3-methyl-2-oxopyridin-1(2H)-yl)phenyl)-7-oxo-4,5,6,7-tetrahydro-1H-pyrazolo[3,4-c]pyridine-3-carboxamide] | <2 | – | <1
8 | CCOc1ccc(-n2nc(C(N)=O)c3c2C(=O)N(c2ccc(N4CCOCC4=O)c(C)c2)CC3)cc1 [A 33, 1-(4-ethoxyphenyl)-6-(3-methyl-4-(3-oxomorpholino)phenyl)-7-oxo-4,5,6,7-tetrahydro-1H-pyrazolo[3,4-c]pyridine-3-carboxamide] | <1 | 60.8 | <1
9 | COc1ccc(-n2nc(C(N)=O)c3c2C(=O)N(c2ccc(-n4cccc(C)c4=O)c(C)c2)CC3)cc1F [A 51, 1-(3-fluoro-4-methoxyphenyl)-6-(3-methyl-4-(3-methyl-2-oxopyridin-1(2H)-yl)phenyl)-7-oxo-4,5,6,7-tetrahydro-1H-pyrazolo[3,4-c]pyridine-3-carboxamide] | <1 | – | –
10 | CCOc1ccc(-n2nc(C(N)=O)c3c2C(=O)N(c2ccc(N4CCCCC4=O)cc2)CC3)cc1Cl [A 29, 1-(3-chloro-4-ethoxyphenyl)-6-(4-(2-oxopiperidin-1-yl)phenyl)-7-oxo-4,5,6,7-tetrahydro-1H-pyrazolo[3,4-c]pyridine-3-carboxamide] | <2 | 67.4 | <1
11 | CCOc1ccc(-n2nc(C(N)=O)c3c2C(=O)N(c2ccc(N4CCCC4=O)c(C)c2)CC3)cc1 [A 35, 1-(4-ethoxyphenyl)-6-(3-methyl-4-(2-oxopyrrolidin-1-yl)phenyl)-7-oxo-4,5,6,7-tetrahydro-1H-pyrazolo[3,4-c]pyridine-3-carboxamide] | <2 | – | <1
12 | CCOc1ccc(-n2nc(C(N)=O)c3c2C(=O)N(c2ccc(-n4cccc(C)c4=O)cc2)CC3)cc1 [A 28, 1-(4-ethoxyphenyl)-6-(4-(3-methyl-2-oxopyridin-1(2H)-yl)phenyl)-7-oxo-4,5,6,7-tetrahydro-1H-pyrazolo[3,4-c]pyridine-3-carboxamide] | <1 | 73.1 | <1
13 | CCOc1ccc(-n2nc(C(N)=O)c3c2C(=O)N(c2ccc(-n4cccc(C)c4=O)c(C)c2)CC3)cc1F [A 40, 1-(3-fluoro-4-ethoxyphenyl)-6-(3-methyl-4-(3-methyl-2-oxopyridin-1(2H)-yl)phenyl)-7-oxo-4,5,6,7-tetrahydro-1H-pyrazolo[3,4-c]pyridine-3-carboxamide] | <1 | 63.4 | <1
14 | COc1ccc(-n2nc(C(N)=O)c3c2C(=O)N(c2ccc(N4CCSCC4=O)cc2)CC3)cc1 [A 3, 1-(4-methoxyphenyl)-6-(4-(3-oxothiomorpholino)phenyl)-7-oxo-4,5,6,7-tetrahydro-1H-pyrazolo[3,4-c]pyridine-3-carboxamide] | <1 | – | –
15 | CCOc1ccc(-n2nc(C(N)=O)c3c2C(=O)N(c2ccc(N4CCCCC4=O)c(C)c2)CC3)cc1F [A 32, 1-(3-fluoro-4-ethoxyphenyl)-6-(3-methyl-4-(2-oxopiperidin-1-yl)phenyl)-7-oxo-4,5,6,7-tetrahydro-1H-pyrazolo[3,4-c]pyridine-3-carboxamide] | <1 | 61.4 | <1
16 | CCOc1ccc(-n2nc(C(N)=O)c3c2C(=O)N(c2ccc(-n4cccc(C)c4=O)c(C)c2)CC3)cc1 [A 39, 1-(4-ethoxyphenyl)-6-(3-methyl-4-(3-methyl-2-oxopyridin-1(2H)-yl)phenyl)-7-oxo-4,5,6,7-tetrahydro-1H-pyrazolo[3,4-c]pyridine-3-carboxamide] | <1 | 64.5 | <1
17 | CCOc1ccc(-n2nc(C(N)=O)c3c2C(=O)N(c2ccc(-n4ccccc4=O)c(C)c2)CC3)cc1 [A 37, 1-(4-ethoxyphenyl)-6-(3-methyl-4-(2-oxopyridin-1(2H)-yl)phenyl)-7-oxo-4,5,6,7-tetrahydro-1H-pyrazolo[3,4-c]pyridine-3-carboxamide] | <1 | 63.7 | <1
18 | COc1ccc(-n2nc(C(N)=O)c3c2C(=O)N(c2ccc(N4CCCCC4=O)c(C)c2)CC3)cc1 [A 16, 1-(4-methoxyphenyl)-6-(3-methyl-4-(2-oxopiperidin-1-yl)phenyl)-7-oxo-4,5,6,7-tetrahydro-1H-pyrazolo[3,4-c]pyridine-3-carboxamide] | <1 | – | –
19 | COc1ccc(-n2nc(C(N)=O)c3c2C(=O)N(c2ccc(N4CCCCC4=O)c(C)c2)CC3)cc1F [A 47, 1-(3-fluoro-4-methoxyphenyl)-6-(3-methyl-4-(2-oxopiperidin-1-yl)phenyl)-7-oxo-4,5,6,7-tetrahydro-1H-pyrazolo[3,4-c]pyridine-3-carboxamide] | <1 | – | –
20 | COc1ccc(-n2nc(C(N)=O)c3c2C(=O)N(c2ccc(N4CCOCC4=O)c(C)c2)CC3)cc1F [A 48, 1-(3-fluoro-4-methoxyphenyl)-6-(3-methyl-4-(3-oxomorpholino)phenyl)-7-oxo-4,5,6,7-tetrahydro-1H-pyrazolo[3,4-c]pyridine-3-carboxamide] | <1 | – | –
